Results taken from patent publication EP0159396B1, “Carboxyalkyl peptide derivatives” (G.D. Searle & Co., priority 1984, dated 1985).

Tested on: rat model of inflammatory arthritis
Assay: rat model of inflammatory arthritis induced by Type II collagen (Trentham et al.)
Format: in vivo
Conditions: arthritic rats' paws, test compound 100 mg/kg i.p. twice daily for 21 days, prednisolone 0.625 mg/kg b.i.d.
Procedure: The therapeutic effectiveness is assessed in the rat model of inflammatory arthritis described by Trentham et al. (1977). In this model, the arthritis, induced by an intradermal injection of Type II collagen, generally develops in both hind paws and the progression and severity of the lesion are monitored by physical measurements of the malleolar width and ankle extensibility.
The compound of example II in the present specification was administered by intraperitoneal injections at 100 mg/kg twice daily for 21 days commencing seven days after the injection of the disease.
Drugs (Example 1 or prednisolone) and vehicle were administered to groups of 10 rats each. Physical measurements on the rat paws were made weekly for four weeks and consisted of (a) the distance between the medial and lateral malleolus (malleolar width) and (b) the ankle extension which was measured by applying a standard force to the rat paw and measuring the angle formed between the flexor surface of the foot and tibia. Evidence of a therapeutic effect was denoted by a significant reduction in malleolar width and […] a significant increase in ankle extension. Both measurements were carried out on apparatus designed for the purpose. Area-under-the-curve data from these time course experiments was examined by non-parametric statistical analysis. The prednisolone standard was given at a dose of 0.625 mg/kg b.i.d. Prednisolone was chosen as a standard since steroids are known to be effective both clinically in Rheumatoid Arthritis and in animal models of arthritis.

[1] = experiment number 1, area-under-the-curve of weekly measurements over four weeks

Row | Structure (SMILES) | MALLEOLAR WIDTH, […] FROM CONTROL [1] | ANGLE EXTENSION, […] FROM CONTROL (experiment number 1) | ANGLE EXTENSION, […] FROM CONTROL (experiment number 2) | MALLEOLAR WIDTH, […] FROM CONTROL (experiment number 2) | ANGLE EXTENSION, […] FROM CONTROL (experiment number 3) | MALLEOLAR WIDTH, […] FROM CONTROL (experiment number 3) | ANGLE EXTENSION, […] FROM CONTROL, MEAN (mean of experiments 1-3) | MALLEOLAR WIDTH, […] FROM CONTROL, MEAN (mean of experiments 1-3) | MALLEOLAR WIDTH, PERCENTAGE CHANGE FROM CONTROL [1] | ANGLE EXTENSION, PERCENTAGE CHANGE FROM CONTROL (experiment number 1) | ANGLE EXTENSION, PERCENTAGE CHANGE FROM CONTROL (experiment number 2) | MALLEOLAR WIDTH, PERCENTAGE CHANGE FROM CONTROL (experiment number 2) | ANGLE EXTENSION, PERCENTAGE CHANGE FROM CONTROL (experiment number 3) | MALLEOLAR WIDTH, PERCENTAGE CHANGE FROM CONTROL (experiment number 3) | ANGLE EXTENSION, PERCENTAGE CHANGE FROM CONTROL, MEAN (mean of experiments 1-3) | MALLEOLAR WIDTH, PERCENTAGE CHANGE FROM CONTROL, MEAN (mean of experiments 1-3)
1 | C[C@]12C=CC(=O)C=C1CC[C@@H]1[C@@H]2[C@@H](O)C[C@@]2(C)[C@H]1CC[C@]2(O)C(=O)CO [Prednisolone] | 98% | 100% | 96% | 96% | 95% | 97% | 97% | 97% | – | – | – | – | – | – | – | –
2 | CNC(=O)[C@H](Cc1ccc(OC)cc1)NC(=O)[C@H](CC(C)C)N[C@H](CCNC(=O)OCc1ccccc1)C(=O)O [Example 1, N-[3-N-(Benzyloxycarbonyl)amino-I-(R)-carboxypropyl]-L-leucyl-O-methyl-L-tyrosine N-Methylamide] | – | – | – | – | – | – | – | – | 65% | 66% | 39% | 43% | 39% | 41% | 48% | 50%
